Source: patent US20120270237A9, “METHODS FOR THE IDENTIFICATION OF KINASE INTERACTING MOLECULES AND FOR THE PURIFICATION OF KINASE PROTEINS” (Cellzone AG, priority 2009, published 2012)

Legend:
PITSLRE = test: Kinobeads competition binding, HL60 cell lysate; parameters: species or system human; conditions: 10 μM free compound
Experimental: To one aliquot of cell lysate 10 μM of the free compound (FIG. 3, CZC31326) was added and allowed to bind to proteins in the lysate. Then the affinity matrix with the immobilized compound (Example 1) was added to capture proteins that were not interacting with the previously added free compound. Beads were separated from the lysate and bead bound proteins were eluted in SDS sample buffer and subsequently separated by SDS-Polyacrylamide gel electrophoresis (FIG. 4). Suitable gel bands were cut out and subjected to in-gel proteolytic digestion with trypsin. The second lysate aliquot was processed identically, however no free compound was added (DMSO solvent control). Peptides originating from samples 1 and 2 were labeled with iTRAQ reagents (iTRAQ 114 and iTRAQ 117) and the combined samples were analyzed with a nano-flow liquid chromatography system coupled online to a tandem mass spectrometer (LC-MS/MS) experiment followed by iTRAQ reporter ion quantification in the MS/MS spectra (Ross et al., 2004. Mol. Cell. Proteomics 3(12):1154-1169). […] The iTRAQ reagents are a set of multiplexed, amine-specific, stable isotope reagents that can label peptides on amino groups in up to four different biological samples enabling simultaneous identification and quantitation of peptides. […]

[1] = molecular target: T1, kinases from mixed HeLa placenta lysates (Homo sapiens, UniProt Q12866); test: Kinobeads competition binding with immobilized CZC25342, mixed HeLa placenta lysates (Example 5, Table 7); conditions: kinase MER; 10 μM free compound; HeLa Placenta lysate mix
T1 construct: capturing and identification of kinases from mixed HeLa placenta lysates; endogenous in cells; host or cells: mixed lysate of HeLa cells and placenta tissue
T1 sequence (Q12866 21-999): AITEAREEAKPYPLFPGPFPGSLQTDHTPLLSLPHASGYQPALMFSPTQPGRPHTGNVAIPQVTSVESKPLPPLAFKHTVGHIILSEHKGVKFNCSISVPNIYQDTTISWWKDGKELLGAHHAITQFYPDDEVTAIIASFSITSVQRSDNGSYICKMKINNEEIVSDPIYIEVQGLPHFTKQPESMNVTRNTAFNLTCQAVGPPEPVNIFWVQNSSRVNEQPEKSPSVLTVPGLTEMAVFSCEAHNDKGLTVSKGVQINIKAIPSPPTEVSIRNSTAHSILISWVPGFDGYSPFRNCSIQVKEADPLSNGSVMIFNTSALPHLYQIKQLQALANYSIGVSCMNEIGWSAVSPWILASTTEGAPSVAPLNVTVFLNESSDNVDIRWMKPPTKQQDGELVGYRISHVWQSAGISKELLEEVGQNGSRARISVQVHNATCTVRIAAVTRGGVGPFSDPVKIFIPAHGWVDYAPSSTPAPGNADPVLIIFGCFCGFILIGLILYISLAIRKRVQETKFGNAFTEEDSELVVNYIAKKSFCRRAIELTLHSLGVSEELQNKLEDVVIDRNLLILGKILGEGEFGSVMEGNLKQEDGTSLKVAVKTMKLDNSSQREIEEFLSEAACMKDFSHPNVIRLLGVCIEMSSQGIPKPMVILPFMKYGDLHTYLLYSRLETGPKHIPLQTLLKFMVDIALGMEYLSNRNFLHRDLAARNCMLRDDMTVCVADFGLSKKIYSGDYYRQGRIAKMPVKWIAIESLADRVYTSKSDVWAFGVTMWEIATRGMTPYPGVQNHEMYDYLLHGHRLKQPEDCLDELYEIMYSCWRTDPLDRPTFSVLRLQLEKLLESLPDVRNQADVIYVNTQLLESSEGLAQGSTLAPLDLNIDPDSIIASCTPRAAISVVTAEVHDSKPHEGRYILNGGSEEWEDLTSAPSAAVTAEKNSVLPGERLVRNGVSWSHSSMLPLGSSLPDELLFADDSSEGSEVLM
Outline: (§1)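 Mixed HeLa/placenta lysate was preincubated with 10 μM free CZC25342 or DMSO, followed by capture on beads bearing immobilized compound. Bound proteins were eluted, separated by SDS-PAGE, trypsin-digested, iTRAQ-labelled and quantified by LC-MS/MS. Percent competition was taken against the DMSO control.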

[2] = molecular target: T2, kinases from mixed HeLa placenta lysates (Homo sapiens, UniProt Q14289); test: as above; conditions: kinase PYK2; 10 μM free compound; HeLa Placenta lysate mix
T2 construct: capturing and identification of kinases from mixed HeLa placenta lysates; endogenous in cells; host or cells: mixed lysate of HeLa cells and placenta tissue
Outline: as §1

[3] = molecular target: T3, kinases from mixed HeLa placenta lysates (Homo sapiens, UniProt O96013); test: as above; conditions: kinase PAK4; 10 μM free compound; HeLa Placenta lysate mix
T3 construct: capturing and identification of kinases from mixed HeLa placenta lysates; endogenous in cells; host or cells: mixed lysate of HeLa cells and placenta tissue
T3 sequence (O96013 whole entry): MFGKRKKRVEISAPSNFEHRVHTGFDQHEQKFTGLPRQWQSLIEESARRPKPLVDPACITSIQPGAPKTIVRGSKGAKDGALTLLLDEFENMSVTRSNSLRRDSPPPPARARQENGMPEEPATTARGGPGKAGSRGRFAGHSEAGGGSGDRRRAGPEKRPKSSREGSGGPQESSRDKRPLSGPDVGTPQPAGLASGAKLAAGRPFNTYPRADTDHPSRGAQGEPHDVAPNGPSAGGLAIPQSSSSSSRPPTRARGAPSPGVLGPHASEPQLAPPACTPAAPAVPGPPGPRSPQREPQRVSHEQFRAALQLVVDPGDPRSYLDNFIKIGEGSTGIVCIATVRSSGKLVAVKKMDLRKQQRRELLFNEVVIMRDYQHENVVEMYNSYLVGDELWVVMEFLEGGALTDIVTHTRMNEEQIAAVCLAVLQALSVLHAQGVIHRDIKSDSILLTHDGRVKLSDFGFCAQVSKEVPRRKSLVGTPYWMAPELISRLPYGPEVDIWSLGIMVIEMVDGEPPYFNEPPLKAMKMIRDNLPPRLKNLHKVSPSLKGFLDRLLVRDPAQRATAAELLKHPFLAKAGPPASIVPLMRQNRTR
Outline: as §1

[4] = molecular target: T4, kinases from mixed HeLa placenta lysates (Homo sapiens, UniProt Q13233); test: as above; conditions: kinase MAP3K1; 10 μM free compound; HeLa Placenta lysate mix
T4 construct: capturing and identification of kinases from mixed HeLa placenta lysates; endogenous in cells; host or cells: mixed lysate of HeLa cells and placenta tissue
Outline: as §1

[5] = molecular target: T5, kinases from mixed HeLa placenta lysates (Homo sapiens, UniProt P49840); test: as above; conditions: kinase GSK3A; 10 μM free compound; HeLa Placenta lysate mix
T5 construct: capturing and identification of kinases from mixed HeLa placenta lysates; endogenous in cells; host or cells: mixed lysate of HeLa cells and placenta tissue
T5 sequence (P49840 whole entry): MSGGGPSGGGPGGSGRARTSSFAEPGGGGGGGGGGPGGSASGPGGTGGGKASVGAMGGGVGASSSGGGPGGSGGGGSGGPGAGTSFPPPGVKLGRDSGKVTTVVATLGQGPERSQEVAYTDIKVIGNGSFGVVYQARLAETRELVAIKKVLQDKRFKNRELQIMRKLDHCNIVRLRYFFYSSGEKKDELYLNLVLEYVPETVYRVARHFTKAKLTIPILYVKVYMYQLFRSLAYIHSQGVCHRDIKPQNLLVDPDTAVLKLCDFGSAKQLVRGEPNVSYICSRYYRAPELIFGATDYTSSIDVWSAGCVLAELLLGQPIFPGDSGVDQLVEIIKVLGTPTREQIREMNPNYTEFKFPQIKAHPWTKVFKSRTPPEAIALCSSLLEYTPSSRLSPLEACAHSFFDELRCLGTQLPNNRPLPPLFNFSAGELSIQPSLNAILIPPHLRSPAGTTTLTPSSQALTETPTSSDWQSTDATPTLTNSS
Outline: as §1

[6] = molecular target: T6, kinases from mixed HeLa placenta lysates (Homo sapiens, UniProt Q04771); test: as above; conditions: kinase ALK2; 10 μM free compound; HeLa Placenta lysate mix
T6 construct: capturing and identification of kinases from mixed HeLa placenta lysates; endogenous in cells; host or cells: mixed lysate of HeLa cells and placenta tissue
T6 sequence (Q04771 21-509): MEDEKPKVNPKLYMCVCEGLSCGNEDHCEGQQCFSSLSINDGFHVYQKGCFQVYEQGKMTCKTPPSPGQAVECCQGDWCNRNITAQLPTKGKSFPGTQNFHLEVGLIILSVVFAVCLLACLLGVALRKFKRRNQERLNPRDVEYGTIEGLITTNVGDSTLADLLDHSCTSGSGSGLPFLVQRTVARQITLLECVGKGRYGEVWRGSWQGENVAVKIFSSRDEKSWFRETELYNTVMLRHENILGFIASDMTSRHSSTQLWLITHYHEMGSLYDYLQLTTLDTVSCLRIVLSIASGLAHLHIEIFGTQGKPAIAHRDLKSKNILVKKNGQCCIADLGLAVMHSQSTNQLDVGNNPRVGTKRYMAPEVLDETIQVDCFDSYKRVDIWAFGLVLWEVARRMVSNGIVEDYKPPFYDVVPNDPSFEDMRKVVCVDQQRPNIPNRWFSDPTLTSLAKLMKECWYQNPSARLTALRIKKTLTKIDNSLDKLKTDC
Outline: as §1

[7] = molecular target: T7, kinases from mixed HeLa placenta lysates (Homo sapiens, UniProt O95382); test: as above; conditions: kinase MAP3K6; 10 μM free compound; HeLa Placenta lysate mix
T7 construct: capturing and identification of kinases from mixed HeLa placenta lysates; endogenous in cells; host or cells: mixed lysate of HeLa cells and placenta tissue
T7 sequence (O95382 whole entry): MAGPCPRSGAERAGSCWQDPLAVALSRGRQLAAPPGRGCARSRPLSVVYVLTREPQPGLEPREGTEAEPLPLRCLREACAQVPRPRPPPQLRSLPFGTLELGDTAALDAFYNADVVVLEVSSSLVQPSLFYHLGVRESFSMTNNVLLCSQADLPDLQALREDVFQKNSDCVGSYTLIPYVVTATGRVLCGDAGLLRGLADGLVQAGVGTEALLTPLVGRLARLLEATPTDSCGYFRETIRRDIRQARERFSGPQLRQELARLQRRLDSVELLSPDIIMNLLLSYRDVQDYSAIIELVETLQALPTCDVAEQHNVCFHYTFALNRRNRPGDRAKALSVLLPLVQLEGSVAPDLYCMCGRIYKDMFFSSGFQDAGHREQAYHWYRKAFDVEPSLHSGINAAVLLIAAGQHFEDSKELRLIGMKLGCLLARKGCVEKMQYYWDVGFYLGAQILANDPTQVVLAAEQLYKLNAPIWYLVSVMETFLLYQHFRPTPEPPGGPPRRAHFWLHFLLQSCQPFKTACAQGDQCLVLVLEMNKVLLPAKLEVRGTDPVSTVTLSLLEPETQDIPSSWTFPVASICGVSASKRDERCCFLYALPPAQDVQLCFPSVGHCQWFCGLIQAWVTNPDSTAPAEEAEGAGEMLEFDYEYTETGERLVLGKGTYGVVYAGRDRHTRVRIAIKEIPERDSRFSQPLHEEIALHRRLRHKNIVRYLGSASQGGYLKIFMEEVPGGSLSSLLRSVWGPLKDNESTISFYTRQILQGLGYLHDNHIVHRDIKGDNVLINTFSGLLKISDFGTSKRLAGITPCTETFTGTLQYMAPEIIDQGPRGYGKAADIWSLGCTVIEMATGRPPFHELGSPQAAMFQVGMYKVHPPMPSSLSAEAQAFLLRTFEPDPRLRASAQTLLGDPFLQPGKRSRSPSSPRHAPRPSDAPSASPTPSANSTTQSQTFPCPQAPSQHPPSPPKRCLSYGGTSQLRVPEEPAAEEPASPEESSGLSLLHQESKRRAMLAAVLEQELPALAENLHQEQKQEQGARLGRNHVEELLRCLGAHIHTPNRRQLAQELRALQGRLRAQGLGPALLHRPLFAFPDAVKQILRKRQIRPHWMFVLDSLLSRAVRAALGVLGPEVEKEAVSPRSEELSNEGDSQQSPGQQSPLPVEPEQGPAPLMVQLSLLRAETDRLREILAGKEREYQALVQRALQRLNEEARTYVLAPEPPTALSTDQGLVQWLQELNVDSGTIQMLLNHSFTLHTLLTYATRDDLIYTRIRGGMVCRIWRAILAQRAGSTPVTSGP
Outline: as §1

[8] = molecular target: T8, kinases from mixed HeLa placenta lysates (Homo sapiens, UniProt P78356); test: as above; conditions: kinase PIP5K2B; 10 μM free compound; HeLa Placenta lysate mix
T8 construct: capturing and identification of kinases from mixed HeLa placenta lysates; endogenous in cells; host or cells: mixed lysate of HeLa cells and placenta tissue
T8 sequence (P78356 whole entry): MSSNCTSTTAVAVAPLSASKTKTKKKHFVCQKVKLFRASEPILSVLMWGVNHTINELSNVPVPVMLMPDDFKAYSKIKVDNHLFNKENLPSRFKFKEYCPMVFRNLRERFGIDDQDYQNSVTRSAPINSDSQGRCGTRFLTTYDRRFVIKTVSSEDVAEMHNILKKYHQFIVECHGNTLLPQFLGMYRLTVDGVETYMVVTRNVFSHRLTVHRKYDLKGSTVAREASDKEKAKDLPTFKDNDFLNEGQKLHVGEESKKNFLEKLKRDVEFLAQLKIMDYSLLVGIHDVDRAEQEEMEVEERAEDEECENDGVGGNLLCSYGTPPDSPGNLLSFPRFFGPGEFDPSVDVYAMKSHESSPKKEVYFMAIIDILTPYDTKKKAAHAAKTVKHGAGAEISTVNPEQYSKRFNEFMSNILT
Outline: as §1

[9] = molecular target: T9, kinases from mixed HeLa placenta lysates (Homo sapiens, UniProt Q08345); test: as above; conditions: kinase DDR1; 10 μM free compound; HeLa Placenta lysate mix
T9 construct: capturing and identification of kinases from mixed HeLa placenta lysates; endogenous in cells; host or cells: mixed lysate of HeLa cells and placenta tissue
Outline: as §1

[10] = molecular target: T10, kinases from mixed HeLa placenta lysates (Homo sapiens, UniProt P28482); test: as above; conditions: kinase Erk2; 10 μM free compound; HeLa Placenta lysate mix
T10 construct: capturing and identification of kinases from mixed HeLa placenta lysates; endogenous in cells; host or cells: mixed lysate of HeLa cells and placenta tissue
T10 sequence (P28482 whole entry): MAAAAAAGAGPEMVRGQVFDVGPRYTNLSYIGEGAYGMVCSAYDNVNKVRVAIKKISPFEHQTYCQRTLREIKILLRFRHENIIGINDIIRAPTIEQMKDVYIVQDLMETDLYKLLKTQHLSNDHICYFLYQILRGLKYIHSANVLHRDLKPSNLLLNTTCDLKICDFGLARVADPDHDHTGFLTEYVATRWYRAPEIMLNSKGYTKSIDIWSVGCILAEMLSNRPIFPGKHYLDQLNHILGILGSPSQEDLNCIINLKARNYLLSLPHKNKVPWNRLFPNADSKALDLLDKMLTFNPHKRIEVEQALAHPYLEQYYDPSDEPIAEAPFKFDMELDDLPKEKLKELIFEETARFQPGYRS
Outline: as §1

[11] = molecular target: T11, kinases from mixed HeLa placenta lysates (Homo sapiens, UniProt Q04912); test: as above; conditions: kinase RON; 10 μM free compound; HeLa Placenta lysate mix
T11 construct: capturing and identification of kinases from mixed HeLa placenta lysates; endogenous in cells; host or cells: mixed lysate of HeLa cells and placenta tissue
Outline: as §1

`CS(=O)(=O)Nc1ccccc1Nc1nc(Nc2cccc(OCCN)c2)ncc1Cl` [CZC31326, N-(2-(2-(3-(2-aminoethoxy)phenylamino)-5-chloropyrimidin-4-ylamino)phenyl)methanesulfonamide] gave a Competition % (PITSLRE) of 94.8%.

In the case of `CS(=O)(=O)Nc1ccccc1Nc1nc(Nc2cccc(OCCN)c2)ncc1F` [CZC25342, N-(2-(2-(3-(2-aminoethoxy)phenylamino)-5-fluoropyrimidin-4-ylamino)phenyl)methanesulfonamide], the “Competition % MER” value [1] is reported as 96.5%, the “Competition % PYK2” value [2] is reported as 96.3% and the “Competition % PAK4” value [3] is reported as 94.8%. For the same molecule, the “Competition % MAP3K1” value [4] was 64.6%, the “Competition % GSK3A” value [5] was 94.6% and the “Competition % ALK2” value [6] was 96.4%. The “Competition % MAP3K6” value [7] was 91.6%, the “Competition % PIP5K2B” value [8] was 97.2% and the “Competition % DDR1” value [9] was 94.1%. The “Competition % Erk2” value [10] was 48.5% and the “Competition % RON” value [11] was 96%.
